From ChEMBL document CHEMBL1201862, “PubChem BioAssay data set” (2004)
Activity calls are given as the source filed them.

Tests used:
Jurkat = assay: antigen receptor-induced NF-kB inhibitors, dose response, Jurkat, luciferase reporter, luminescence, B- and T-cell (AID 489004); assay type: functional, cell-based; details: Homo sapiens;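 also: NF-kB luciferase reporter Jurkat cells stimulated with PMA plus ionomycin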
cells = assay type: functional, cell-based; details: HEK-CNG
Galanin receptor type 2 = Galanin receptor type 2 (Homo sapiens, UniProt O43603); assay: Dose Response cell-based high-throughput screening assay to identify antagonists of galanin receptor 2 (GALR2). [Related pubchem assays: 828, 866 ]; assay type: functional
Chain of Galanin receptor type 2 (O43603 whole entry): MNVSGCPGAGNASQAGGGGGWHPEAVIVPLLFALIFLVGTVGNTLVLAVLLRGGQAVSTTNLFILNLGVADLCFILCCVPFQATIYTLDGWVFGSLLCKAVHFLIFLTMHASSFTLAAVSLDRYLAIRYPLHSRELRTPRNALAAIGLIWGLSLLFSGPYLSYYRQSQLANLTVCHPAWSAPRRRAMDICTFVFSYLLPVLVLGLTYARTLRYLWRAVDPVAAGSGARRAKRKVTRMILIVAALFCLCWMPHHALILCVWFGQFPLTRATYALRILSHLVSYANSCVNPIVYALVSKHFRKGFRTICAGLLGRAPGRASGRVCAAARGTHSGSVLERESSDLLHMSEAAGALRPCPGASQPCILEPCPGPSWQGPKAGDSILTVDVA

Galanin receptor type 3 = Galanin receptor type 3 (Homo sapiens, UniProt O60755); assay: Fluorescence-based cell-based primary high throughput dose response assay to identify antagonists of the Galanin Receptor 3 (GalR3).; assay type: functional
Chain of Galanin receptor type 3 (O60755 whole entry): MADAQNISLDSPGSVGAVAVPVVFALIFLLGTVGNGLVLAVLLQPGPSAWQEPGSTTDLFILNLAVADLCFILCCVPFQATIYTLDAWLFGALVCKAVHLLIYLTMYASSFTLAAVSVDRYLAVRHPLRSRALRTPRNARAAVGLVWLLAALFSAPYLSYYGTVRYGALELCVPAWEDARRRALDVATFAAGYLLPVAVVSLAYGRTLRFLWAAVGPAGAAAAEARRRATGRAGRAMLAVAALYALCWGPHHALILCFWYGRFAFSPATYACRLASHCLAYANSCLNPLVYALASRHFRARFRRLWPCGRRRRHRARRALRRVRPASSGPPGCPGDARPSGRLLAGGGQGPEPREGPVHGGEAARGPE

[1] = cytotoxicity in HEK-293T NF-kB-Luc cells, dose response, cytotoxicity control for B/T-cell NF-kB inhibitor project, cell-based, uHTS hits (AID 489019); assay type: functional;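 also: IC50 reflects cytotoxicity as loss of cell viability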
INS1 [2] = assay: beta cell apoptosis inhibitors, cytokine rescue, dose response, luminescence, retest (AID 449756); assay type: functional, cell-based; details: Rattus norvegicus;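 also: cell death triggered by IL-1 beta plus TNF-alpha plus IFN-gamma mixture; protective hits raise ATP signal compared with cytokine alone wells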
Escherichia coli = assay: microbe, parasite or virus in culture
[3] = target: T1, Microphthalmia-associated transcription factor (Homo sapiens, UniProt O75030); assay: TRPM1 promoter luciferase signal decrease, dose response, MITF inhibitor project, cell-based, SK-MEL-5, cherry-picked, set 3 (AID 493073); assay type: functional
T1 sequence (O75030 whole entry): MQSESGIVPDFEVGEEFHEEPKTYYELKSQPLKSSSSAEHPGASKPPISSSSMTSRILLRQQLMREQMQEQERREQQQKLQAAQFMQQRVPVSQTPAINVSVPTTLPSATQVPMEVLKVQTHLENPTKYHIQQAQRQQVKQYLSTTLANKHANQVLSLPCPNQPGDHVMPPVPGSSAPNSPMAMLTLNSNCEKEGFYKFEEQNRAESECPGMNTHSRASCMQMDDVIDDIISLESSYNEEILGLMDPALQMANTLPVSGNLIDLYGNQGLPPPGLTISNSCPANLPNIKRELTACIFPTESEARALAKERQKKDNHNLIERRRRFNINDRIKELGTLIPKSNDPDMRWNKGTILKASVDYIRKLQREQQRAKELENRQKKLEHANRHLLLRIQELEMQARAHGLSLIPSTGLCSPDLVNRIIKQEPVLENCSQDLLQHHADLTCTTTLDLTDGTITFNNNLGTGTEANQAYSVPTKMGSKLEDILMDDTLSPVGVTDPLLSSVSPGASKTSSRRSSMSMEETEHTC

[4] = control 3'UTR Renilla luciferase suppression, dose response, counter-screen for Shn3 inhibitor project, cell-based, Clone20-Shn3RL, cherry-picked (AID 624133); assay type: functional
A-375 [5] = assay: A375 melanoma cell viability reduction, dose response, counter-screen for MITF modulator project, cherry-pick samples, set 2 (AID 540335); assay type: functional, cell-based; details: Homo sapiens
Paired box protein Pax-8 = Paired box protein Pax-8 (Homo sapiens, UniProt Q06710); assay: inhibitors of PAX8-driven TPO luciferase reporter, dose response, RMG-I cells, cherry-pick (AID 687027); assay type: functional, cell-based;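 also: luciferase reporter driven by Pax8 target thyroperoxidase promoter measured by SteadyGlo luminescence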
Chain of Paired box protein Pax-8 (Q06710 whole entry): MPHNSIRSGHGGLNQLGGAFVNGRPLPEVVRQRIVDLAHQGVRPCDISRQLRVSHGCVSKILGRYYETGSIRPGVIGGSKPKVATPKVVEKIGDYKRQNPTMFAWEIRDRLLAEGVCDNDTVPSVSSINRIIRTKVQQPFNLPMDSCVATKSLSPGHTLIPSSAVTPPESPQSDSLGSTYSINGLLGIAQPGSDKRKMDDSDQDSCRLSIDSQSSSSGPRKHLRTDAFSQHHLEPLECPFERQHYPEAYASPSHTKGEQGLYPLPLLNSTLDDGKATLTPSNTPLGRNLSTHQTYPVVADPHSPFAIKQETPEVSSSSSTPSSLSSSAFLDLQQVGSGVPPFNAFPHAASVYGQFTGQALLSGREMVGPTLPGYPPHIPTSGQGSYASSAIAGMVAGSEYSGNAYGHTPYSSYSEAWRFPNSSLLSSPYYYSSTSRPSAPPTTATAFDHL

[6] = Shn3 3'UTR reporter inhibitors, dose response, cell-based, Clone20 osteoblasts, firefly luciferase, cherry-picked (AID 624132); assay type: functional;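 also: firefly luciferase luminescence from reporter carrying the Shn3 3'UTR in osteoblasts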
HeLa = assay: Cytotoxicity counterscreen assay for transcriptional activators of heat shock protein 70 (Hsp70). [Related pubchem assays: 1203, 1252 ]; assay type: functional; details: Homo sapiens;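 also: cells exposed to compound for 16 hours before readout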
[7] = inhibitors of CMV-promoter luciferase reporter, dose response, counter-screen for Pax8 inhibitor project, cell-based, HEK293, luminescence, dry powder (AID 743020); assay type: functional
A-375 [8] = assay: MITF: Counter assay: A375 proliferation Measured in Cell-Based System Using Plate Reader - 2084-03_Inhibitor_Dose_DryPowder_Activity. [Related pubchem assays (depositor defined):AID488944]; assay type: functional; details: Homo sapiens
[9] = HepG2 cell cytotoxicity, dose response, cytotoxicity control for Shn3 inhibitor project, CellTiter-Glo, cherry-picked (AID 624134); assay type: functional, cell-based
Cysteine protease ATG4B = target: T2, Cysteine protease ATG4B (Homo sapiens, UniProt Q9Y4P1); assay: ATG4B protease inhibitors, dose response, biochemical, fluorescence, set 2 (AID 588584); assay type: functional
T2 sequence (Q9Y4P1 whole entry): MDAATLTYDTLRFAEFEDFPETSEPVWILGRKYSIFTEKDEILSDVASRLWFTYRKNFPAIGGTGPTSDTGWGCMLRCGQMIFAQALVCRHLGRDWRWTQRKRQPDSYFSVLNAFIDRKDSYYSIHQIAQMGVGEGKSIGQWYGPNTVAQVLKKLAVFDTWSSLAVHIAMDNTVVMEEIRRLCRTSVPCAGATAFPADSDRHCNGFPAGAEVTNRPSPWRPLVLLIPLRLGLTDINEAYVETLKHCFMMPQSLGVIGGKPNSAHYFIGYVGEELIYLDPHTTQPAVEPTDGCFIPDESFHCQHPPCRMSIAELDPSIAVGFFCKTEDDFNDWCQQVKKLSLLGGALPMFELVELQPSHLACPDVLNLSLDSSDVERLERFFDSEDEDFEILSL

Phospholipase A2 = Phospholipase A2 (Homo sapiens, UniProt P04054); assay: PLA2 enzyme inhibitors, dose response, counter-screen for ATG4B inhibitor project, biochemical, set 2 (AID 588586); assay type: functional
Chain of Phospholipase A2 (P04054 whole entry): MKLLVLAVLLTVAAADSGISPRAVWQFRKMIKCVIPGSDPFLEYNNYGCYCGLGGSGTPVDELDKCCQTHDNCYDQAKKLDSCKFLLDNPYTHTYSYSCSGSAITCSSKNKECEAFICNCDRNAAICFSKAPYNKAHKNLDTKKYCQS

[10] = cytotoxicity in HEK-293T cells, dose response, cytotoxicity control for TCR NF-kB inhibitor project, luminescence, T-cell screen hits (AID 489026); assay type: functional, cell-based;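 also: cells exposed to compound about 14 hours before the viability readout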
[11] = inhibitors of Trypanosoma cruzi host-cell infection, confirmation, beta-gal luminescence, NIH3T3 host cells (AID 2630); assay type: functional, cell-based; details: Mus musculus
[12] = Luminescence Cell-Based/Microorganism Confirmation at Dose of Inhibitors of Trypanosoma cruzi Infection. [Related pubchem assays: 1885, 1968 ]; assay type: functional
[13] = Luminescence Cell-Based Secondary HTS screen to identify cytotoxic compounds of NIH3T3 cells. [Related pubchem assays: 1885, 1968 ]; assay type: functional
Cytochrome P450 2C19 = Cytochrome P450 2C19 (Homo sapiens, UniProt P33261); assay: Cytochrome panel assay with activity outcomes. Panel member name: p450-cyp2c19 Compounds with AC50 equal or less than 10 uM are considered active; assay type: functional
Chain of Cytochrome P450 2C19 (P33261 whole entry): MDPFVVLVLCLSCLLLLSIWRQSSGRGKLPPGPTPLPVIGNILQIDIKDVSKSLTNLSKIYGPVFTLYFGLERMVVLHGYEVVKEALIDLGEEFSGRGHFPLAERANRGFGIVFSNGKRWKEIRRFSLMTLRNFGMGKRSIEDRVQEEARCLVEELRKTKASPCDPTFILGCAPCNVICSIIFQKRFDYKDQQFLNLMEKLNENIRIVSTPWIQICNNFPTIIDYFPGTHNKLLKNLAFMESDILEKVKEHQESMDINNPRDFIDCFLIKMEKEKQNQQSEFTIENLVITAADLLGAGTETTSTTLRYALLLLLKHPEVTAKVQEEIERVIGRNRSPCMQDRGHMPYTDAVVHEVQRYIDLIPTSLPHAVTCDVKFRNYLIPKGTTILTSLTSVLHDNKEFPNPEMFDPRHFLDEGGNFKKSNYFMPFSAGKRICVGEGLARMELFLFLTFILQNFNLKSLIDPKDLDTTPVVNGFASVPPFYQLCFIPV

Cytochrome P450 3A4 = Cytochrome P450 3A4 (Homo sapiens, UniProt P08684);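 also: CYP3A4 tested as one member of a cytochrome P450 panel screen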
Chain of Cytochrome P450 3A4 (P08684 whole entry): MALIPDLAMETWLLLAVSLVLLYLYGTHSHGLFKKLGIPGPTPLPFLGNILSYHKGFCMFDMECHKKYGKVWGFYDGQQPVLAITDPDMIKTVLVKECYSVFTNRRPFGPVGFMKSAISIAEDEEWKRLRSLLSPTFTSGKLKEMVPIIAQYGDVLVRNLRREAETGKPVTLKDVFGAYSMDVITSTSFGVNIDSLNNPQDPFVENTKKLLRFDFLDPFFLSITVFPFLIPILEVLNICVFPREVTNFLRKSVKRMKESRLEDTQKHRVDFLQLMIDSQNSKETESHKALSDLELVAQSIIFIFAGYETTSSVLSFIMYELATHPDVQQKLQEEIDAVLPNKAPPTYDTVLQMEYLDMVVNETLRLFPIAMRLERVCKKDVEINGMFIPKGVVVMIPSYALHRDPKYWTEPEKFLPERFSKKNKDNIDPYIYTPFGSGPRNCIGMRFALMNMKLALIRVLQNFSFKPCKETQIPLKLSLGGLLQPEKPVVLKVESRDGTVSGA

Cytochrome P450 2D6 = Cytochrome P450 2D6 (Homo sapiens, UniProt P10635);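 also: CYP2D6 member of a cytochrome P450 panel assay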
Chain of Cytochrome P450 2D6 (P10635 whole entry): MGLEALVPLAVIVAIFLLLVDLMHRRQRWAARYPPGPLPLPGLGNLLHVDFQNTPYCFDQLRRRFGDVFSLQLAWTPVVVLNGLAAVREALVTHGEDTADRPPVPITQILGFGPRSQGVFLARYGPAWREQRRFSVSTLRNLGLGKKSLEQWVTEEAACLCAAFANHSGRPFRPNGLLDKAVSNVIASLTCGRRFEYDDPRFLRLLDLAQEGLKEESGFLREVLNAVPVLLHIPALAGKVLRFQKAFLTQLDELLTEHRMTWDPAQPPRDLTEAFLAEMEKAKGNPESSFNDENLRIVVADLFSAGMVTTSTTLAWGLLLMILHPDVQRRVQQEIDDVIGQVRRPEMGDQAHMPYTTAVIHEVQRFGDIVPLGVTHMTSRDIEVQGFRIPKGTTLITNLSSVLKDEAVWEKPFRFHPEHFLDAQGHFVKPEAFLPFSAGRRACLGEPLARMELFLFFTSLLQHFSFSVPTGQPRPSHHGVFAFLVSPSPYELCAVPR

Cytochrome P450 1A2 = target: T3, Cytochrome P450 1A2 (Homo sapiens, UniProt P05177);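 also: PubChem cytochrome P450 panel assay, CYP1A2 panel member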
T3 sequence (P05177 whole entry): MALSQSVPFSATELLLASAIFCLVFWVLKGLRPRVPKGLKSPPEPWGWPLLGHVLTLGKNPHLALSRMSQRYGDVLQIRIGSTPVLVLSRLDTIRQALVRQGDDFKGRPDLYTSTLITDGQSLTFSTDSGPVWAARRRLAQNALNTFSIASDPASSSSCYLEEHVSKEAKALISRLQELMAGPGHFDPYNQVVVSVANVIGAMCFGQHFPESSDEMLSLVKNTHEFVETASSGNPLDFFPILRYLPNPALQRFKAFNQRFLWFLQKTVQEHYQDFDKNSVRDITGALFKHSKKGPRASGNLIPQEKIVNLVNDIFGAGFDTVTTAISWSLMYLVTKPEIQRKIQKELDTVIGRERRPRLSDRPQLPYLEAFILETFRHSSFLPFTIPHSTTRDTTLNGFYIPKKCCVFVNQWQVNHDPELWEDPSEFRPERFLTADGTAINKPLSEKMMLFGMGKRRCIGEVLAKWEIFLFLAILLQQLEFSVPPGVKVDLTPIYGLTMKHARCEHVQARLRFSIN

Cytochrome P450 2C9 = Cytochrome P450 2C9 (Homo sapiens, UniProt P11712)
Chain of Cytochrome P450 2C9 (P11712 whole entry): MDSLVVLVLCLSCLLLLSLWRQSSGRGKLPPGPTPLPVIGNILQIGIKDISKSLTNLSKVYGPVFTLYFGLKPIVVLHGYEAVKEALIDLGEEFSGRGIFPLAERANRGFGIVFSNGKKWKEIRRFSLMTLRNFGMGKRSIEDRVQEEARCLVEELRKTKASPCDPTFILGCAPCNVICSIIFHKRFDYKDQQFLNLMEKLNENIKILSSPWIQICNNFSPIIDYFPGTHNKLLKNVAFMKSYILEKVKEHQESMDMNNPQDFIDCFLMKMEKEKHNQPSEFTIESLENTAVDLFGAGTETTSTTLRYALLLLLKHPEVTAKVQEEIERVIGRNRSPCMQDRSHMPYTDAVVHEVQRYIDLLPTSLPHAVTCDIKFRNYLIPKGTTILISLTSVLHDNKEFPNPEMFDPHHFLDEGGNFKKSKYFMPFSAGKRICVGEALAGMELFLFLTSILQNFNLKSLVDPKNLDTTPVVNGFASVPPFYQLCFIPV

INS1 [14] = assay: protection from cytokine-induced mitochondrial depolarization, dose response, cell-based, INS-1E, JC-1 fluorescence ratio, dry powder (AID 488931); assay type: functional; details: Rattus norvegicus
INS1 [15] = assay: protection of INS-1E cells from cytokine death, dose response, ATP luminescence, dry powder (AID 488844); assay type: functional, cell-based; details: Rattus norvegicus
[16] = target: T4, Short transient receptor potential channel 4 (Mus musculus, UniProt Q9QUQ5); assay: TRPC4 inhibitor concentration-response, dose response, cell-based, HEK293 TRPC4/mu-opioid, DAMGO stimulus, Fluo-4 (AID 492994); assay type: functional
T4 sequence (Q9QUQ5 whole entry): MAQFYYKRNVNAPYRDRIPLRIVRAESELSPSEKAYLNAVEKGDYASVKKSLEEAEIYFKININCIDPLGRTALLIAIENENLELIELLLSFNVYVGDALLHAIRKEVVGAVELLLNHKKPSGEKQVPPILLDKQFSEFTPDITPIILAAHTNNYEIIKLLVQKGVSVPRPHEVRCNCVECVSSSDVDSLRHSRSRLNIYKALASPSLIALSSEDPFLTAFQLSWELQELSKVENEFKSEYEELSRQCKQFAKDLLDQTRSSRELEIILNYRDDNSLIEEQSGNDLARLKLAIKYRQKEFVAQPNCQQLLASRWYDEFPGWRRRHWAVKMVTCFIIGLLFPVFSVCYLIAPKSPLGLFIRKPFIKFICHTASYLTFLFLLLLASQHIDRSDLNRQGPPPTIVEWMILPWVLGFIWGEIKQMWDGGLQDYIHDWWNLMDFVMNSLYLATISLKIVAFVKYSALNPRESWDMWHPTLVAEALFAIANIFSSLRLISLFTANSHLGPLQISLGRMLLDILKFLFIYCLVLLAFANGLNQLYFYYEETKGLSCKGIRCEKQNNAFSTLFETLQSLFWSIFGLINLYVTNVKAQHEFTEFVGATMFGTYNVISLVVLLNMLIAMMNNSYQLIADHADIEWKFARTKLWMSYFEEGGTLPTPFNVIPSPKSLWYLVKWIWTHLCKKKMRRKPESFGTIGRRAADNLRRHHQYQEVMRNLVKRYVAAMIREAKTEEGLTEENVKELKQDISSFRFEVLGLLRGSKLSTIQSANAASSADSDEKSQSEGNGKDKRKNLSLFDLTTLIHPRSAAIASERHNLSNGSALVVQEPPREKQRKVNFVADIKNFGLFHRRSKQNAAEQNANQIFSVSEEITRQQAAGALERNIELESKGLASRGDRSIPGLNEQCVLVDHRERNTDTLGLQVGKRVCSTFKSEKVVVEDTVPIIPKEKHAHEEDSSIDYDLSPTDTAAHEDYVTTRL

[17] = target: T4, Short transient receptor potential channel 4; assay: SAR Analysis for the identification of selective inhibits of the transient receptor potential cation channel C4 (TRPC4): Automated Electrophysiology. [Related pubchem assays (depositor defined):AID2256]; assay type: functional
[18] = target: T4, Short transient receptor potential channel 4; assay: SAR Analysis for the identification of selective inhibitors of the transient receptor potential cation channel C4 (TRPC4): TRPC4 Serotonin Receptor CRC MPD assay. [Related pubchem assays (depositor defined):AID2247, AID2256]; assay type: functional
[19] = target: T4, Short transient receptor potential channel 4; assay: TRPC4 inhibition under acetylcholine activation, SAR follow-up, cell-based, acetylcholine stimulus, HEK293 TRPC4, Fluo-4 (AID 492996); assay type: functional

Cn1nc(C(C)(C)C)cc1C(=O)NCc1ccc(N2CCCC2=O)cc1
IC50 (Jurkat): > 80 µM (inactive)
EC50 (cells): > 29.9 µM (inactive)
IC50 (Galanin receptor type 2): > 42 µM (not active)
IC50 (Galanin receptor type 3): 1.13 µM (active)
IC50 [1]: > 80 µM (inactive)
AC50 (INS1 [2]): 2.85 µM (active)

CC(=O)N1Cc2cc([N+](=O)[O-])ccc2Oc2ccccc21
AC50 (Escherichia coli): 28.5 µM (active)

CCC(=O)N1CCN(c2ccc(NC(=O)c3ccc([N+](=O)[O-])o3)cc2Cl)CC1
AC50 [3]: 6.09 µM (active)
AC50 [4]: 5.2 µM (active)
AC50 (A-375 [5]): > 35 µM (active)
AC50 (Paired box protein Pax-8): 4.12 µM (active)
AC50 [6]: 0.85 µM (active)
CC50 (HeLa): 4.57 µM (active)
AC50 [7]: 2.21 µM (active)
AC50 (A-375 [8]): > 35 µM (active)
AC50 [9]: 20.5 µM (active)

Cc1noc(C)c1CSc1nc2ccccc2c(=O)n1-c1ccccc1
IC50 (Cysteine protease ATG4B): 19.2 µM (active)
IC50 (Phospholipase A2): 10.7 µM (active)
IC50 [10]: > 80 µM (inactive)

CC(C)c1cccc(OCCCCN(C)C)c1
EC50 [11]: 2.18 µM (active)
EC50 [12]: 2.18 µM (active)
EC50 [13]: > 195 µM (not active)

Cc1ncc(CO)c(/C=N/CCCCCC/N=C/c2c(CO)cnc(C)c2[O-])c1[O-].[Mg+2]
AC50 (Cytochrome P450 2C19): inactive
AC50 (Cytochrome P450 3A4): inactive
AC50 (Cytochrome P450 2D6): inactive
AC50 (Cytochrome P450 1A2): inactive
AC50 (Cytochrome P450 2C9): inactive

COc1ccc(S(=O)(=O)N(C)C[C@@H]2Oc3c(NC(=O)Nc4cccc5ccccc45)cccc3C(=O)N(C(C)C)C[C@H]2C)cc1
AC50 (INS1 [14]): 24 µM (active)
AC50 (INS1 [15]): 63.7 µM (active)

Cc1cc(N2CCC(C)CC2)nc2ccccc12
IC50 [16]: 7.24 µM (active)
IC50 [17]: 3.14 µM (active)
IC50 [18]: 5.47 µM (active)
IC50 [19]: 20.7 µM (active)
